Experimental data: patent US20070142437A1, “CHEMICAL COMPOUNDS” (priority 2005, published 2007)

The compounds below were run on HUVEC cells (assay: Human Umbilical Vein Endothelial Cell (HUVEC) proliferation assay (BrdU incorporation)). Conditions: growth stimulated with VEGF, 72 hrs, read-out: Inhibition of HUVEC proliferation IC50.
Assay type: cell-based
Experimental: Human Umbilical Vein Endothelial Cell (HUVEC) Proliferation Assay (BrdU Incorporation) Materials
HUVEC cells and EGM-MV (Endothelial cell growth medium—microvascular) were purchased from Clonetics (San Diego, Calif.). VEGF and bFGF were purchased from R&D Systems (Minneapolis, Minn.). Anti-BrdU antibody was obtained from Chemicon International (Temecula, Calif.).
HUVECs were routinely maintained in EGM-MV medium and were used within passage 7. HUVECs were plated at a density of 2500 cells/well in M199 medium containing 5% FBS (Hyclone) in type I collagen coated plate (Becton Dickinson). The plate was incubated at 37° C. overnight. The medium was removed by aspiration, and test compounds were added to each well in a volume of 0.1 ml/well in serum-free M199 medium. Compound concentrations ranged from 1.5 nM to 30 micromolar. The plate was incubated for 30 min at 37° C. Another 0.1 ml of serum-free M199 medium containing BSA and VEGF (or bFGF) was added to give a final concentration of 0.1% BSA and 10 ng/ml VEGF (0.3 ng/ml bFGF). The plate was incubated at 37° C. for 72 hrs. BrdU was added to each well after the first 48 hrs to give a concentration of 10 micromolar. The colorimetric ELISA assay was performed according to manufacturer's (Roche Molecular Sciences) instructions, with detection by absorbance reading at 450 nm. Results were plotted as concentration of test compound vs. absorbance to give an IC50 value for inhibition of BrdU incorporation.

`COc1ccc(S(=O)(=O)NC(C)C)cc1Nc1ncc(-c2cccc(-c3ccccc3)c2)o1` [Example 224, 3-{[5-(1,1′-biphenyl-3-yl)-1,3-oxazoI-2-yl]amino}-N-isopropyl-4-methoxybenzenesulfonamide] and `COc1ccc(S(=O)(=O)NC(C)C)cc1Nc1ncc(-c2cccc(-c3cccnc3)c2)o1` [Example 223, N-isopropyl-4-methoxy-3-{[5-(3-pyridin-3-ylphenyl)-1,3-oxazol-2-yl]amino}benzenesulfonamide] cannot be ordered by IC50: less than 500 nM for the first, less than 500 nM for the second.

`COc1ccc(S(=O)(=O)NCc2ccccn2)cc1Nc1ncc(-c2ccc(F)cc2)o1` [Example 86, 3-{[5-(4-fluorophenyl)-1,3-oxazol-2-yl]amino}-4-methoxy-N-(pyridin-2-ylmethyl)benzenesulfonamide] and `CNS(=O)(=O)c1ccc(OC)c(Nc2ncc(-c3ccc(F)cc3)o2)c1` [Example 130, 3-{[5-(4-fluorophenyl)-1,3-oxazol-2-yl]amino}-4-methoxy-N-methylbenzenesulfonamide] cannot be ordered by IC50: less than 500 nM for the first, less than 1000 nM for the second.

`COc1ccc(S(=O)(=O)N(C)C)cc1Nc1ncc(-c2cccc(-c3ccccc3)c2)o1` [Example 225, 3-{[5-(1,1′-biphenyl-3-yl)-1,3-oxazol-2-yl]amino}-4-methoxy-N,N-dimethylbenzenesulfonamide] and `COc1ccc(S(=O)(=O)NC2CC2)cc1Nc1ncc(-c2cccc(-c3ccccc3)c2)o1` [Example 226, 3-{[5-(1,1′-biphenyl-3-yl)-1,3-oxazol-2-yl]amino}-N-cyclopropyl-4-methoxybenzenesulfonamide] cannot be ordered by IC50: less than 500 nM for the first, less than 500 nM for the second.

`CCS(=O)(=O)c1ccc(OC)c(Nc2ncc(-c3cccc(Cl)c3)o2)c1` [Example 137, 5-(3-chlorophenyl)-N-[5-(ethylsulfonyl)-2-methoxyphenyl]-1,3-oxazol-2-amine] and `CCS(=O)(=O)c1ccc(OC)c(Nc2ncc(-c3cccc(O)c3)o2)c1` [Example 158] cannot be ordered by IC50: less than 1000 nM for the first, less than 1000 nM for the second.

`CCS(=O)(=O)c1ccc(OC)c(Nc2ncc(-c3cccc(OCc4cccc(OC)c4OC)c3)o2)c1` [Example 165, 5-{3-[(2,3-dimethoxybenzyl)oxy]phenyl}-N-[5-(ethylsulfonyl)-2-methoxyphenyl]-1,3-oxazol-2-amine] and `CCS(=O)(=O)c1ccc(OC)c(Nc2ncc(-c3cccc(-c4cccc(F)c4)c3)o2)c1` [Example 207, N-[5-(ethylsulfonyl)-2-methoxyphenyl]-5-(3′-fluoro-1,1′-biphenyl-3-yl)-1,3-oxazol-2-amine] cannot be ordered by IC50: less than 1000 nM for the first, less than 500 nM for the second.

`CCS(=O)(=O)c1ccc(OC)c(Nc2ncc(-c3ccc(F)cc3)o2)c1` [Example 109, N-[5-(ethylsulfonyl)-2-methoxyphenyl]-5-(4-fluorophenyl)-1,3-oxazol-2-amine] and `COc1ccc(S(=O)(=O)CC(C)C)cc1Nc1ncc(-c2ccc(F)cc2)o1` [Example 93, 5-(4-fluorophenyl)-N-[5-(isobutylsulfonyl)-2-methoxyphenyl]-1,3-oxazol-2-amine] cannot be ordered by IC50: less than 500 nM for the first, less than 1000 nM for the second.

`CCS(=O)(=O)c1ccc(OC)c(Nc2ncc(-c3ccc(C(N)=O)cc3)o2)c1` [Example 134] and `C=Cc1cccc(-c2cnc(Nc3cc(S(=O)(=O)CC)ccc3OC)o2)c1` [Example 175, N-[5-(ethylsulfonyl)-2-methoxyphenyl]-5-(3-vinylphenyl)-1,3-oxazol-2-amine] cannot be ordered by IC50: less than 500 nM for the first, less than 1000 nM for the second.

`COc1ccc(S(=O)(=O)C2CCOC2)cc1Nc1ncc(-c2ccc(F)cc2)o1` (stereo not shown) [Example 95, 5-(4-fluorophenyl)-N-[2-methoxy-5-(tetrahydrofuran-3-ylsulfonyl)phenyl]-1,3-oxazol-2-amine] and `COc1ccc(S(=O)(=O)NCC2CCCO2)cc1Nc1ncc(-c2ccc(F)cc2)o1` (stereo not shown) [Example 124, 3-{[5-(4-fluorophenyl)-1,3-oxazol-2-yl]amino}-4-methoxy-N-(tetrahydrofuran-2-ylmethyl)benzenesulfonamide] cannot be ordered by IC50: less than 1000 nM for the first, less than 1000 nM for the second.

`COc1cc(Nc2ncc(-c3ccccc3)o2)cc(OC)c1OC` [Example 74, 5-phenyl-N-(3,4,5-trimethoxyphenyl)-1,3-oxazol-2-amine] and `COc1cc(Nc2ncc(-c3cccc(-c4ccccc4)c3)o2)cc(OC)c1OC` [Example 199, 5-(1,1′-biphenyl-3-yl)-N-(3,4,5-trimethoxyphenyl)-1,3-oxazol-2-amine] cannot be ordered by IC50: less than 500 nM for the first, less than 500 nM for the second.

`CCS(=O)(=O)c1ccc(OC)c(Nc2ncc(-c3cccc(-c4ccc(F)cc4)c3)o2)c1` [Example 183, N-[5-(ethylsulfonyl)-2-methoxyphenyl]-5-(4′-fluoro-1,1′-biphenyl-3-yl)-1,3-oxazol-2-amine] and `CCS(=O)(=O)c1ccc(OC)c(Nc2ncc(-c3cccc(-c4ccccc4Cl)c3)o2)c1` [Example 216, 5-(2′-chloro-1,1′-biphenyl-3-yl)-N-[5-(ethylsulfonyl)-2-methoxyphenyl]-1,3-oxazol-2-amine] cannot be ordered by IC50: less than 500 nM for the first, less than 500 nM for the second.

`CCS(=O)(=O)c1ccc(OC)c(Nc2ncc(-c3cccc(-c4cncn4C)c3)o2)c1` [Example 179, N-[5-(ethylsulfonyl)-2-methoxyphenyl]-5-[3-(1-methyl-1H-imidazol-5-yl)phenyl]-1,3-oxazol-2-amine] and `CCNS(=O)(=O)c1ccc(OC)c(Nc2ncc(-c3cccc(-c4ccccn4)c3)o2)c1` [Example 218, N-ethyl-4-methoxy-3-{[5-(3-pyridin-2-ylphenyl)-1,3-oxazol-2-yl]amino}benzenesulfonamide] cannot be ordered by IC50: less than 500 nM for the first, less than 500 nM for the second.

`COc1ccc(S(N)(=O)=O)cc1Nc1ncc(-c2cccc(-c3cccc(F)c3)c2)o1` [Example 214, 3-{[5-(3′-fluoro-1,1′-biphenyl-3-yl)-1,3-oxazol-2-yl]amino}-4-methoxybenzenesulfonamide] and `COc1ccc(S(=O)(=O)C(C)c2ccncc2)cc1Nc1ncc(-c2cccc(-c3ccccc3)c2)o1` (stereo not shown) [Example 196, 5-(1,1′-biphenyl-3-yl)-N-{2-methoxy-5-[(1-pyridin-4-ylethyl)sulfonyl]phenyl}-1,3-oxazol-2-amine] cannot be ordered by IC50: less than 1000 nM for the first, less than 500 nM for the second.

Work on `COCCCNS(=O)(=O)c1ccc(OC)c(Nc2ncc(-c3ccc(F)cc3)o2)c1` [Example 129, 3-{[5-(4-fluorophenyl)-1,3-oxazol-2-yl]amino}-4-methoxy-N-(3-methoxypropyl)benzenesulfonamide] yielded an IC50 of less than 1000 nM.
